Experimental data as given in patent US20050171190A1, “Substituted 5-chroman-5-YL-ethylamine compounds and their use for the treatment of glaucoma” (Alcon, Inc., priority 2002, published 2005).
Where two headings read alike, the source gives them in different places.

Experiments:
5-HT2 receptors = conditions: cited from earlier work
5-HT2A receptor [1] = molecular target: 5-HT2A receptor (Homo sapiens, UniProt P28223); conditions: cited from earlier work
[2] = drug discrimination studies; cited from earlier work
5-HT2C receptor = molecular target: T1, 5-HT2C receptor (Homo sapiens, UniProt P28335); conditions: cited from earlier work
T1 sequence (P28335 33-458): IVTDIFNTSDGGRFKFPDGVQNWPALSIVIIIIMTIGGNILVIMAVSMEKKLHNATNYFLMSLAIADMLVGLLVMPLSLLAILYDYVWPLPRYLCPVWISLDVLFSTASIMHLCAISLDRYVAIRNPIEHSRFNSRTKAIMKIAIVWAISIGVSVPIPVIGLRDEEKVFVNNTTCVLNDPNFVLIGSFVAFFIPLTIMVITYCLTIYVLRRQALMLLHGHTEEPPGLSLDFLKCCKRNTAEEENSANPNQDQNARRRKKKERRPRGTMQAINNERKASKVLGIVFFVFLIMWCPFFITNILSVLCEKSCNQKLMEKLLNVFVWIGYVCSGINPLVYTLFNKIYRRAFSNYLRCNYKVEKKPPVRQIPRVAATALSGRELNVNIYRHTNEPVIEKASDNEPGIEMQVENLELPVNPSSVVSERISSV

[3] = monkey; due to its α1A receptor activity; cited from earlier work
[4] = rabbits; cited from earlier work
5-HT2A Receptor [5] = experiment: 5-HT2 receptor binding assay ([125I]DOI competition); design: species or system rat or human; conditions: inhibition of [125I]DOI binding, cerebral cortex homogenates
Experimental: Aliquots of post mortem rat or human cerebral cortex homogenates (400 μL) dispersed in 50 mM Tris-HCl buffer (pH 7.4) are incubated with [125I]DOI (80 pM final) in the absence or presence of methiothepin (10 μM final) to define total and non-specific binding, respectively, in a total volume of 0.5 mL. The assay mixture is incubated for 1 hour at 23° C. in polypropylene tubes and the assays terminated by rapid vacuum filtration over Whatman GF/B glass fiber filters previously soaked in 0.3% polyethyleneimine using ice-cold buffer. Test compounds (at different concentrations) are substituted for methiothepin. Filter-bound radioactivity is determined by scintillation spectrometry on a beta counter. The data are analyzed using a non-linear, iterative curve-fitting computer program (Bowen et al. 1995) to determine the compound affinity parameter. The concentration of the compound needed to inhibit the [125I]DOI binding by 50% of the maximum is termed the IC50 value.

5-HT2A Receptor [6] = molecular target: T2, 5-HT2A Receptor (Rattus norvegicus, UniProt P14842); experiment: 5-HT2 functional assay: [Ca2+]i mobilization (FLIPR); assay type: cell-based
T2 construct: endogenous in cells; host or cells: A7r5 rat vascular smooth muscle cells
T2 sequence (P14842 whole entry): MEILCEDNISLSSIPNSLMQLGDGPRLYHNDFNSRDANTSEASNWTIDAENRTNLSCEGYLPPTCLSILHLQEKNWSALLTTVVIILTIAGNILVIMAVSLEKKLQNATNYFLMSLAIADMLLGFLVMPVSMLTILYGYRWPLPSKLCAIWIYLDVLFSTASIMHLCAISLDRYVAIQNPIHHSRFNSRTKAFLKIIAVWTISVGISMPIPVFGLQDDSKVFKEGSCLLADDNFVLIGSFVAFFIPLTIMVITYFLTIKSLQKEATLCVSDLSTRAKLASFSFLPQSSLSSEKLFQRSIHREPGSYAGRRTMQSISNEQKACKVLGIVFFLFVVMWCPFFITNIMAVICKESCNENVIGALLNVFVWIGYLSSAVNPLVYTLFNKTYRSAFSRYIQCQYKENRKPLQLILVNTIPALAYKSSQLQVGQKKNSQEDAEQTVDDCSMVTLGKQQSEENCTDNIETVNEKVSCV
Experimental: The receptor-mediated mobilization on intracellular calcium ([Ca2+]i) was studied using the Fluorescence Imaging Plate Reader (FLIPR) instrument. Rat vascular smooth muscle cells, A7r5, were grown in a normal media of DMEM/10% FBS and 10 μg/mL gentamycin. Confluent cell monolayers were trypsinized, pelleted, and re-suspended in normal media. Cells were seeded in a 50 μL volume at a density of 20,000 cells/well in a black wall, 96-well tissue culture plate and grown for 2 days.
On the day of the experiment, one vial of FLIPR Calcium Assay Kit dye was re-suspended in 50 mL of a FLIPR buffer consisting of Hank's Balanced Salt Solution (HBSS), 20 mM HEPES, and 2.5 mM probenecid, pH 7.4. […]
The compound plate and cell plate were placed in the FLIPR instrument. At the beginning of an experimental run, a signal test was performed to check the basal fluorescence signal from the dye-loaded cells and the uniformity of the signal across the plate. The basal fluorescence was adjusted between 8000-12000 counts by modifying the exposure time, the camera F-stop, or the laser power. […] Fluorescence data were collected in real-time at 1.0 sec intervals for the first 60 secs and at 6.0 sec intervals for an additional 120 secs. Responses were measured as peak fluorescence intensity minus basal and where appropriate were expressed as a percentage of a maximum 5-HT-induced response. […]

5-HT2A receptor, sequence (P28223 whole entry): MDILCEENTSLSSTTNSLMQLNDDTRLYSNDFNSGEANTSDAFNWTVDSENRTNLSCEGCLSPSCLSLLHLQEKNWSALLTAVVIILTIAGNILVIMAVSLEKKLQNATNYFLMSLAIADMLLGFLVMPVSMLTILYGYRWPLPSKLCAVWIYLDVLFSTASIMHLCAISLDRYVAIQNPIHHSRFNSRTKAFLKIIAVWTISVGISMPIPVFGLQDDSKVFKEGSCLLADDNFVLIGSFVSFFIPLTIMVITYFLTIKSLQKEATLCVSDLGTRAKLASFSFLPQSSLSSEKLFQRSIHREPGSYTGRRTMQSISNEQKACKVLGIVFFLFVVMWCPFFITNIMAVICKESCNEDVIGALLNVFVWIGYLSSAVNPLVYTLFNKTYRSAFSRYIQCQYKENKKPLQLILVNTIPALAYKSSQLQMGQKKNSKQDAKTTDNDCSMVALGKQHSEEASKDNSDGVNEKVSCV

Structure (SMILES): COc1cc(CCN)c2c(c1OC)OCC2 [2-(6,7-Dimethoxy-2,3-dihydro-benzofuran-4-yl)-ethylamine]
- affinity for 5-HT2 receptors (5-HT2 receptors): have affinity

Structure (SMILES): COc1cc(Br)c2c(c1CC(C)N)CCO2 (stereo not drawn) [2-(7-bromo-5-methoxy-2,3-dihydro-benzofuran-4-yl)-1-methylethylamine]
- affinity for the 5-HT2A receptor (5-HT2A receptor [1]): high affinity
- generalization to LSD [2]: generalize to LSD

Structure (SMILES): CC(N)Cc1cccc2occc12 (stereo not drawn) [2-benzofuran-4-yl-1-methylethylamine]
- agonist activity at the 5-HT2C receptor (5-HT2C receptor): agonist activity

Structure (SMILES): COc1ccccc1N1CCN(CCCNc2c(C)c(=O)n(C)c(=O)n2C)CC1 [5-methylurapidil]
- effect on IOP [3]: lowers IOP

Structure (SMILES): CCCN(CCC)C1CCc2cccc(O)c2C1 (stereo not drawn) [Compound 8-OH-DPAT, 8-hydroxy-2-(di-n-propylamino)tetralin]
- effect on IOP [4]: reduces IOP

Structure (SMILES): COc1cc(CC(C)N)c(OC)cc1I (stereo not drawn) [DOI]
- IC50 (5-HT2A Receptor [5]): 0.33 nM
- Efficacy (Emax, %) (5-HT2A Receptor [6]; A7r5 cells, percentage of a maximum 5-HT-induced response): 31%
- EC50 (5-HT2A Receptor [6]; A7r5 rat vascular smooth muscle cells, [Ca2+]i mobilization): 30.2 nM
